# From patent US6028195A, “Piperazine derivatives and process for the preparation thereof” (Samjin Pharmaceutical Co., Ltd., priority 1996, dated 2000)
# Where two headings read alike, the source gives them in different places.
# What was measured:
# Assay type in all cases: cell-based
# SKMEL-2 (human melanoma) = test: SRB assay, in vitro antitumor effect against SKMEL-2; conditions: Homo sapiens; SK-MEL-2, 48 hours; read-out: ED50 (the source's name)
# Procedure: (§1) In vitro antitumor effect against human tumor cell lines.
# (§2) b. 5×10^3 ~2×10^4 cells were added into each well of 96-well plate and cultured in 5% CO2 incubator, at 37° C., for 24 hours.
# (§3) c. Each sample drug was dissolved in a little DMSO and diluted with the used medium to a prescribed concentration for experiments, wherein the final concentration of DMSO was controlled below 0.5%.
# (§4) d. Medium of each well cultured for 24 hours as above b. was removed by aspiration. Each 200 μl of drug samples prepared in c. was added into each well and the wells were cultured for 48 hours. Tz(time zero) plates were collected at the point of time drugs were added.
# (§5) e. According to the SRB assay method, cell fixing with TCA, staining with 0.4% SRB solution, washing with 1% acetic acid and elution of dye with 10 mM Tris solution were carried out on Tz plates and culture-ended plates, and then, OD values were measured at 520 nm.
# (§6) a. Time zero(Tz) value was determined with measuring the SRB protein value at the point of time drugs were added.
# (§7) b. Control value(C) was determined with the OD value of an well untreated with drug.
# (§8) c. Drug-treated test value(T) was determined with the OD value of drug-treated well.
# (§9) d. Effects of drugs were estimated with growth stimulation, net growth inhibition, net killing etc. calculated from Tz, C and T.
# (§10) e. If T≥Tz, cellular response function was calculated by 100×(T-Tz)/(C-Tz), and if T<Tz, by 100×(T-Tz)/Tz.
# [1] = system: A549 (human non-small lung cell); test: SRB assay, in vitro antitumor effect against A549; conditions: Homo sapiens
# Procedure: as §1, §2, §3, §4, §5, §6, §7, §8, §9, §10
# SKOV-3 (human ovarian) = test: SRB assay, in vitro antitumor effect against SKOV-3; conditions: Homo sapiens; SK-OV-3, 48 hours; read-out: ED50 (the source's name)
# Procedure: as §1, §2, §3, §4, §5, §6, §7, §8, §9, §10
# XF 498 (human CNS) = test: SRB assay, in vitro antitumor effect against XF 498; conditions: Homo sapiens, XF498; XF-498, 48 hours; read-out: ED50 (the source's name)
# Procedure: as §1, §2, §3, §4, §5, §6, §7, §8, §9, §10
# HCT-15 (human colon) = test: SRB assay, in vitro antitumor effect against HCT-15; conditions: Homo sapiens
# Procedure: as §1, §2, §3, §4, §5, §6, §7, §8, §9, §10
# [2] = A549, 48 hours, read-out: ED50 (the source's name)
# [3] = HCT 15, 48 hours, read-out: ED50 (the source's name)
SMILES,IC50 (SKMEL-2 (human melanoma)) [µg/mL],"IC50 [1, 2] [µg/mL]",IC50 (SKOV-3 (human ovarian)) [µg/mL],IC50 (XF 498 (human CNS)) [µg/mL],IC50 (HCT-15 (human colon); [3]) [µg/mL],"IC50 (HCT-15 (human colon); HCT-15, 48 h, read-out: ED50) [µg/mL]","IC50 ([1]; A549, 48 h, read-out: ED50) [µg/mL]"
"COc1nc2ccccc2cc1NC(=O)N1CCN(c2cc(Cl)cc(Cl)c2)CC1 [Example 85, 1-[(2-Methoxyquinolin-3-yl)aminocarbonyl]-4-(3,5-dichlorolphenyl)piperazine]",0.039,0.048,0.117,0.104,0.1,–,–
"COc1nc(C)c(C(C)=O)cc1NC(=O)N1CCN(c2cc(C)cc(C)c2)CC1 [Example 47, 1-[(5-Acetyl-2-methoxy-6-methylpyridin-3-yl)aminocarbonyl]-4-(3,5-dimethylphenyl)piperazine]",0.47,0.92,0.62,0.64,0.81,–,–
"COc1nc(C)c(C(C)=O)cc1N(C)C(=O)N1CCN(c2cc(C)cc(C)c2)CC1 [Example 151, 1-[N-(5-Acetyl-2-methoxy-6-methylpyridin-3-yl)-N-methylaminocarbonyl]-4-(3,5-dimethylphenyl)piperazine]",0.007,0.004,0.008,0.007,0.037,–,–
"COc1cc(C)c(C)cc1NC(=O)N1CCN(c2cccc(Cl)c2)CC1 [Example 177, 1-[(4,5-Dimethyl-2-methoxyphenyl)aminocarbonyl]-4-(3-chlorophenyl)piperazine]",0.17,0.52,0.39,0.12,0.09,–,–
"COc1cc(C)c(C)cc1NC(=S)N1CCN(c2ccccc2F)CC1 [Example 202, 1-[(4,5-Dimethyl-2-methoxyphenyl)amminothiocarbonyl]-4-(2-fluorophenyl)piperazine]",0.48,0.57,1.26,2.09,0.64,–,–
"COc1cc(OC)cc(N2CCN(C(=O)N(c3cc(C)c(C)nc3OC)C(C)C)CC2)c1 [Example 134, 1-[N-Isopropyl-N-(5,6-dimethyl-2-methoxypyridin-3-yl)aminocarbonyl]-4-(3,5-dimethoxyphenyl)piperazine]",0.0086,0.0009,0.0091,0.002,0.0065,–,–
"COc1cc(OC)cc(N2CCN(C(=S)Nc3cc(C(C)O)c(C)nc3OC)CC2)c1 (stereo not drawn) [Example 63, 1-{[5-(1-Hydroxyethyl)-2-methoxy-6-methylpyridin-3-yl]aminothiocarbonyl}-4-(3,5-dimethoxyphenyl)piperazine]",0.11,0.04,0.1,0.03,0.07,–,–
"COc1cc(C)c(C)cc1NC(=O)N1CCN(c2cccc(O)c2)CC1 [Example 179, 1-[(4,5-Dimethyl-2-methoxyphenyl)aminocarbonyl]-4-(3-hydroxylphenyl)piperazine]",0.72,1.04,0.98,0.74,0.63,–,–
"CCCc1nc(OC)c(N(C)C(=O)N2CCN(c3cc(OC)cc(OC)c3)CC2)cc1C [Example 148, 1-[N-(2-Methoxy-5-methyl-6-propylpyridin-3-yl)-N-methylaminocarbonyl]-4-(3,5-dimethoxyphenyl)piperazine]",0.03,0.01,0.07,0.05,0.05,–,–
"COc1cc(C)c(C)cc1NC(=S)N1CCN(c2cc(F)cc(F)c2)CC1 [Example 200, 1-[(4,5-Dimethyl-2-methoxyphenyl)aminothiocarbonyl]-4-(3,5-difluorophenyl)piperazine]",0.26,0.5,0.53,1.01,0.44,–,–
"COc1cc(OC)cc(N2CCN(C(=O)N(C)c3cc(C(C)O)c(C)nc3OC)CC2)c1 (stereo not drawn) [Example 152, 1-{N-[5-(1-Hydroxyethyl)-2-methoxy-6-methylpyridin-3-yl]-N-methylaminocarbonyl}-4-(3,5-dimethoxyphenyl)piperazine]",0.2,0.18,0.37,0.26,0.44,–,–
"COc1nc(C)c(C)cc1NC(=S)N1CCN(c2cc(F)cc(F)c2)CC1 [Example 23, 1-[(5,6-Dimethyl-2-methoxypyridin-3-yl)aminothiocarbonyl]-4-(3,5-difluorophenyl)piperazine]",0.09,0.09,0.04,0.092,0.05,–,–
"COc1cc(C)c(C)cc1NC(=S)N1CCN(c2cccc(O)c2)CC1 [Example 206, 1-[(4,5-Dimethyl-2-methoxyphenyl)aminothiocarbonyl]-4-(3-hydroxyphenyl)piperazine]",0.52,0.47,0.54,0.7,0.38,–,–
"CCCc1cc(NC(=O)N2CCN(c3cc(C)cc(C)c3)CC2)c(OC)nc1C [Example 9, 1-[(2-Methoxy-6-methyl-5-propylpyridin-3-yl)aminocarbonyl]-4-(3,5-dimethylphenyl)piperazine]",0.21,0.15,0.07,0.11,0.11,–,–
"COc1cc(OC)cc(N2CCN(C(=O)N(C)c3cc(C)c(C)cc3OC)CC2)c1 [Example 190, 1-[N-(4,5-Dimethyl-2-methoxyphenyl)-N-methylaminocarbonyl]-4-(3,5-dimethoxyphenyl)piperazine]",0.002,0.004,0.008,0.443,0.017,–,–
"C=Cc1cc(N(C)C(=O)N2CCN(c3cc(C)cc(C)c3)CC2)c(OC)nc1C [Example 159, 1-[N-(2-Methoxy-6-methyl-5-vinylpyridin-3-yl)-N-methylaminocarbonyl]-4-(3,5-dimethylphenyl)piperazine]",0.07,0.05,0.1,0.21,0.17,–,–
"COc1nc2ccccc2cc1N(C)C(=O)N1CCN(c2cc(C)cc(C)c2)CC1 [Example 103, 1-[N-(2-Methoxyquinolin-3-yl)-N-methylaminocarbonyl]-4-(3,5-dimethylphenyl)piperazine]",0.49,0.52,0.46,0.36,0.33,–,–
"COc1cc(C)c(C)cc1NC(=S)N1CCN(c2cc(Cl)cc(Cl)c2)CC1 [Example 201, 1-[(4,5-Dimethyl-2-methoxyphenyl)aminothiocarbonyl]-4-(3,5-dichlorophenyl)piperazine]",0.049,0.014,0.053,0.026,–,0.071,–
"COc1nc(C)c(C)cc1NC(=S)N1CCN(c2cccc(O)c2)CC1 [Example 24, 1-[(5,6-Dimethyl-2-methoxypyridin-3-yl)aminothiocarbonyl]-4-(3-hydroxyphenyl)piperazine]",0.01,0.03,0.006,0.234,0.01,–,–
"COc1cc(OC)cc(N2CCN(C(=O)N(C)c3cc(C)c(C)nc3OC)CC2)c1 [Example 132, 1-[N-(5,6-Dimethyl-2-methoxypyridin-3-yl)-N-methylaminocarbonyl]-4-(3,5-dimethoxyphenyl)piperazine]",0.03,0.03,0.01,0.04,0.04,–,–
"C=C(C)c1ccccc1N1CCN(C(=O)Nc2cc(CC)c(C)nc2OC)CC1 [Example 5, 1-[(5-Ethyl-6-methyl-2-methoxypyridin-3-yl)aminocarbonyl]-4-(2-isopropenylphenyl)piperazine]",0.6,0.71,0.96,> 10,0.96,–,–
"COc1nc(C)c(C(C)O)cc1NC(=S)N1CCN(c2cc(C)cc(C)c2)CC1 (stereo not drawn) [Example 64, 1-{[5-(1-Hydroxyethyl)-2-methoxy-6-methylpyridin-3-yl]aminothiocarbonyl}-4-(3,5-dimethylphenyl)piperazine]",0.52,0.42,0.56,0.23,0.37,–,–
"CCc1cc(NC(=O)N2CCN(c3ccccc3SC)CC2)c(OC)nc1C [Example 4, 1-[(5-Ethyl-6-methyl-2-methoxypyridin-3-yl)aminocarbonyl]-4-(2-methylthiophenyl)piperazine]",0.007,0.007,0.022,0.94,0.093,–,–
"COc1nc2ccccc2cc1NC(=O)N1CCN(c2cccc(Cl)c2)CC1 [Example 88, 1-[(2-Methoxyquinolin-3-yl)aminocarbonyl]-4-(3-chlorophenyl)piperazine]",0.02,–,0.043,0.009,–,0.011,0.014
